Experimental data published in patent publication US8129399B2, “Aminopyrimidines useful as kinase inhibitors” (Vertex Pharmaceuticals Incorporated, priority 2005, dated 2012).
Where two headings read alike, the source gives them in different places.

Experiments:
Aurora-2 (Aurora A) = target: T1, Aurora-2 (Aurora A) (Homo sapiens, UniProt O14965); experiment: Aurora-2 (Aurora A) inhibition assay, coupled enzyme; assay type: biochemical
T1 sequence (O14965 1-403): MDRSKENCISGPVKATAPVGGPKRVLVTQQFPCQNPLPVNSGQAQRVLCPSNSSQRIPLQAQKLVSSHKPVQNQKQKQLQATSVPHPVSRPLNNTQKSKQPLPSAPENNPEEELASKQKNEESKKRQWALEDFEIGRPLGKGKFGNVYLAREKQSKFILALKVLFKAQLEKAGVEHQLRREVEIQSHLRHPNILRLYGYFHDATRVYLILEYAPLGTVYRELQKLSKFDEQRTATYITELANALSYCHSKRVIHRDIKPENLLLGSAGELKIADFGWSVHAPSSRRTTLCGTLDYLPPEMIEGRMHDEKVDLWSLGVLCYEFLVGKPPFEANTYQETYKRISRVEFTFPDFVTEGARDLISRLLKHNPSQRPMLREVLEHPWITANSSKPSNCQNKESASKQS
Description: Assays were carried out in a mixture of 100 mM Hepes (pH7.5), 10 mM MgCl2, 1 mM DTT, 25 mM NaCl, 2.5 mM phosphoenolpyruvate, 300 μM NADH, 30 μg/ml pyruvate kinase and 10 μg/ml lactate dehydrogenase. […] Assays were carried out at 30° C. and in the presence of 40 nM Aurora-2.
An assay stock buffer solution was prepared containing all of the reagents listed above, with the exception of Aurora-2 and the test compound of interest. […] The plate was preincubated for 10 minutes at 30° C. and the reaction initiated by addition of 10 μl of Aurora-2. Initial reaction rates were determined with a Molecular Devices SpectraMax Plus plate reader over a 10 minute time course. IC50 and Ki data were calculated from non-linear regression analysis using the Prism software package (GraphPad Prism version 3.0cx for Macintosh, GraphPad Software, San Diego Calif., USA).

Aurora-1 (Aurora B) = Aurora-1 (Aurora B) (Homo sapiens, UniProt Q96GD4); experiment: Aurora-1 (Aurora B) inhibition assay (radiometric); assay type: biochemical; conditions: 800 μM ATP; read-out: Aurora B Ki
Chain of Aurora-1 (Aurora B) (Q96GD4 whole entry): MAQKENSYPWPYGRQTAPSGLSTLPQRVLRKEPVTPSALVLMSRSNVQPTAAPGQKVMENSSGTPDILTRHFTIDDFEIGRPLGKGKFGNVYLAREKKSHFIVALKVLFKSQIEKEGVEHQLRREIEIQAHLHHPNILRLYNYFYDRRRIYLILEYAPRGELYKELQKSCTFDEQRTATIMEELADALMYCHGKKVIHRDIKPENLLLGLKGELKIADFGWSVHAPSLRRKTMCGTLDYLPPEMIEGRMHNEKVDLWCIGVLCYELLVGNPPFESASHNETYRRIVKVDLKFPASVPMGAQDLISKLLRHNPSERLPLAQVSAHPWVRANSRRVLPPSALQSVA
Description: An assay buffer solution was prepared which consisted of 25 mM HEPES (pH 7.5), 10 mM MgCl2, 0.1% BSA and 10% glycerol. […] To 22 μL of the Aurora-B solution, in a 96-well plate, was added 2 μl of a compound stock solution in DMSO and the mixture allowed to equilibrate for 10 minutes at 25° C. The enzyme reaction was initiated by the addition of 16 μl stock [γ-^33P]-ATP solution (˜20 nCi/μL) prepared in assay buffer, to a final assay concentration of 800 μM. The reaction was stopped after 3 hours by the addition of 16 μL 500 mM phosphoric acid and the levels of ^33P incorporation into the peptide substrate were determined by the following method.
A phosphocellulose 96-well plate (Millipore, Cat no. MAPHNOB50) was pre-treated with 100 μL of a 100 mM phosphoric acid prior to the addition of the enzyme reaction mixture (40 μL). The solution was left to soak on to the phosphocellulose membrane for 30 minutes and the plate subsequently washed four times with 200 μL of a 100 mM phosphoric acid. […] Levels of non-enzyme catalyzed background radioactivity were determined by adding 16 μL of the 500 mM phosphoric acid to control wells, containing all assay components (which acts to denature the enzyme), prior to the addition of the [γ-^33P]-ATP solution. Levels of enzyme catalyzed ^33P incorporation were calculated by subtracting mean background counts from those measured at each inhibitor concentration. […] Ki values were calculated from initial rate data by non-linear regression using the Prism software package (Prism 3.0, Graphpad Software, San Diego, Calif.).

Colo205 cells = experiment: Colo205 cell proliferation, 3H thymidine incorporation; assay type: cell-based; conditions: Homo sapiens
Description: Colo205 cells were seeded in 96 well plates and serially diluted compound was added to the wells in duplicate. Control groups included untreated cells, the compound diluent (0.1% DMSO alone) and culture medium without cells.
To measure proliferation, 3 h prior to the end of the experiment 0.5 μCi of 3H thymidine was added to each well. Cells were then harvested and the incorporated radioactivity counted on a Wallac microplate beta-counter. Cell viability was assessed using Promega CellTiter 96AQ to measure MTS conversion. Dose response curves were calculated using either Prism 3.0 (GraphPad) or SoftMax Pro 4.3.1 LS (Molecular Devices) software.

[1] = target: N-terminally truncated (Δ 27) Abl kinase (Homo sapiens, UniProt P00519); experiment: Abl kinase activity inhibition assay, coupled enzyme; assay type: biochemical
Chain of N-terminally truncated (Δ 27) Abl kinase (P00519 28-1130 limits assumed, stated change not applied): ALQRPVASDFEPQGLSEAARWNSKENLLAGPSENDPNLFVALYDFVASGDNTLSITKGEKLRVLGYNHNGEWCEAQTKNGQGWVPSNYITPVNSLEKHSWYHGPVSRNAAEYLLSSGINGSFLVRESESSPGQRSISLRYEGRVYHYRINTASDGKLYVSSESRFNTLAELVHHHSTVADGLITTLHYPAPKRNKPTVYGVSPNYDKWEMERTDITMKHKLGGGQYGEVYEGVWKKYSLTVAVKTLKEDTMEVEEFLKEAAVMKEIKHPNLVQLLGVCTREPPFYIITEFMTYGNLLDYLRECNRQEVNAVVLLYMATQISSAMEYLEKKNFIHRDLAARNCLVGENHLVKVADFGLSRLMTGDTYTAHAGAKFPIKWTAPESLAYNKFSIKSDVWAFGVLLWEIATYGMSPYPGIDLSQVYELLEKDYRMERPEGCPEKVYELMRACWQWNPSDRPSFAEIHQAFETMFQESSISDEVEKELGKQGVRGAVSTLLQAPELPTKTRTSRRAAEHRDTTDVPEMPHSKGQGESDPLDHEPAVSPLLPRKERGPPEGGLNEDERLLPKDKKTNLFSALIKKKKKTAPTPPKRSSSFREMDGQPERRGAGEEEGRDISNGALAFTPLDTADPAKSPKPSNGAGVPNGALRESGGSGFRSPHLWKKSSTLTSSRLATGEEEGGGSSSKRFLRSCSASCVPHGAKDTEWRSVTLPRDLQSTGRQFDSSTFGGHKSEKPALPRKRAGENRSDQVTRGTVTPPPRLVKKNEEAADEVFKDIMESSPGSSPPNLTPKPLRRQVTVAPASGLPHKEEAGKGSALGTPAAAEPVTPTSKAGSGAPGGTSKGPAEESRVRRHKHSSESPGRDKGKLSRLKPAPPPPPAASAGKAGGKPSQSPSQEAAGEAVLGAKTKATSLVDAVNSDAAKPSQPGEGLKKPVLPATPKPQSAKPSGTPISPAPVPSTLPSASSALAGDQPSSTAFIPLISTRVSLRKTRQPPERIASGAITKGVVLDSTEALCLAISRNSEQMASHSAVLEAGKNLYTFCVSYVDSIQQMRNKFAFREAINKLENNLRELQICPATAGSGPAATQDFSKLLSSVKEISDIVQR
Description: Reactions were carried out in a solution containing 100 mM HEPES (pH 7.5), 10 mM MgCl2, 25 mM NaCl, 300 μM NADH, 1 mM DTT and 3% DMSO. […] Final concentrations of the components of the coupled enzyme system were 2.5 mM phosphoenolpyruvate, 200 μM NADH, 60 μg/ml pyruvate kinase and 20 μg/ml lactate dehydrogenase.
An assay stock buffer solution was prepared containing all of the reagents listed above with the exception of ATP and the test compound of interest. […] Rates of reaction were obtained using a Molecular Devices Spectramax plate reader (Sunnyvale, Calif.) over 10 min at 30° C. The Ki values were determined from the residual rate data as a function of inhibitor concentration using nonlinear regression (Prism 3.0, Graphpad Software, San Diego, Calif.).

Arg (Abl-2) = Arg (Abl-2) (Homo sapiens, UniProt P42684); experiment: Arg (Abl-2) inhibition screen; assay type: biochemical; conditions: Table 5; ATP at or close to Km
Chain of Arg (Abl-2) (P42684 whole entry, species assumed): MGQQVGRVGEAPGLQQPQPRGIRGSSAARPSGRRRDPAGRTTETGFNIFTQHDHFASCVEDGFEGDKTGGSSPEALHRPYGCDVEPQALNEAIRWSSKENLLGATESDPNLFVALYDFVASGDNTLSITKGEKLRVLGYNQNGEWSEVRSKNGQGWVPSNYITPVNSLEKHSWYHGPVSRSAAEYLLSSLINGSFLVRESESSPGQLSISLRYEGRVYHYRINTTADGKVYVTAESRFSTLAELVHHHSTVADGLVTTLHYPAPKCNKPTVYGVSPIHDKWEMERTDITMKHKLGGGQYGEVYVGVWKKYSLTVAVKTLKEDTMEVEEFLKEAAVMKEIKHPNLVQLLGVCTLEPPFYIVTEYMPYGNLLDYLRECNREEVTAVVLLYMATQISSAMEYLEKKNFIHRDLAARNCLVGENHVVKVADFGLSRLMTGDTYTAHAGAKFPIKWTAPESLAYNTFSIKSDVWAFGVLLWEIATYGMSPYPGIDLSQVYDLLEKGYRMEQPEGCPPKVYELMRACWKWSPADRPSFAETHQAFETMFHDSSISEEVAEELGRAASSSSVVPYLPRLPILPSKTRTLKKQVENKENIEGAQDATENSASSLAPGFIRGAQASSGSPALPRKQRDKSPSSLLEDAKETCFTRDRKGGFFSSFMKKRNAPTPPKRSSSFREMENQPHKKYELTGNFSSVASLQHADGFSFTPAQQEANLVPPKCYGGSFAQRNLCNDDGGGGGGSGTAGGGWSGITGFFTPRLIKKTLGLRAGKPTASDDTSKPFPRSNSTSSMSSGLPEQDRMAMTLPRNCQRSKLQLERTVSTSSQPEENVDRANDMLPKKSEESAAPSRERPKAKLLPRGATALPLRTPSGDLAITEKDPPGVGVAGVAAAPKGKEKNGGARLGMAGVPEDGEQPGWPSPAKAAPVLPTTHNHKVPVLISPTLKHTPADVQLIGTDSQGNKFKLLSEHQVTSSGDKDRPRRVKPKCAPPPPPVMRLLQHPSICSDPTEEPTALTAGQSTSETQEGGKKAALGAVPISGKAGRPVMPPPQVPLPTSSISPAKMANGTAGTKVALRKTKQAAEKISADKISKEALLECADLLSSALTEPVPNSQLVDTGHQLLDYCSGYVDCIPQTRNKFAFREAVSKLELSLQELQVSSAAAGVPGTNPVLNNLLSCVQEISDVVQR
Description: (§1) Compound(s) were screened for their ability to inhibit Arg (Abl-2), FGFR1, MLK1, Tie2, and TrkA using screening methods known to one of ordinary skill in the art. All of the above enzymes were screened with ATP concentrations at or close to the Km for ATP.

FGFR1 = FGFR1 (Homo sapiens, UniProt P11362); experiment: FGFR1 inhibition screen; assay type: biochemical; conditions: Table 5; ATP at or close to Km
Chain of FGFR1 (P11362 22-822, species assumed): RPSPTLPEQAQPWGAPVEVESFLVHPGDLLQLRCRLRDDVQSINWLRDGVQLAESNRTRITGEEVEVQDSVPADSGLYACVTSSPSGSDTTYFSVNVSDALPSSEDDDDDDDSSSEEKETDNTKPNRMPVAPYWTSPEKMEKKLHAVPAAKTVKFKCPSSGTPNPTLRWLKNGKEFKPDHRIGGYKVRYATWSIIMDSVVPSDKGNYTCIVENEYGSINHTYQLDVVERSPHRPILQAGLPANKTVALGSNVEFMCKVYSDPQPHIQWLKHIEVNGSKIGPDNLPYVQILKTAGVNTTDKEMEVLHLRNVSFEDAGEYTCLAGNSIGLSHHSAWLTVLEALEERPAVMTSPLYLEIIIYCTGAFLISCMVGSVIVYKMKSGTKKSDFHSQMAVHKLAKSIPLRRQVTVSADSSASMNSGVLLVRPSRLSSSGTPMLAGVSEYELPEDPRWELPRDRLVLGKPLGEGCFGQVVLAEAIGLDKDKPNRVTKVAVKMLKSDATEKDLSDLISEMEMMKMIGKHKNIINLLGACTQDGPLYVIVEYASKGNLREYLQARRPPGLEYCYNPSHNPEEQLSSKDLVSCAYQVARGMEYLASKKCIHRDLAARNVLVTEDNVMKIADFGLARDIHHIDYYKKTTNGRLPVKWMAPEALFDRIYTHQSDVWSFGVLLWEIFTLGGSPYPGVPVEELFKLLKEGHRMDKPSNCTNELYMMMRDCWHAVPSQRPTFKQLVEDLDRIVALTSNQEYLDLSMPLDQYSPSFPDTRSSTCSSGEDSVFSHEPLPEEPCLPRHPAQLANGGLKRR
Description: as §1

[2] = 400 μM ATP, 40 nM Aurora-2, read-out: Aurora A Ki
[3] = COLO 205, read-out: Colo205 inh 3H-Thy incorporation after 96 hours IC50 (uM)
[4] = COLO 205, read-out: Colo205 inh 3H-Thy incorporation after 72 hours IC50 (uM)

| SMILES | Ki (Aurora-2 (Aurora A); [2]) [nM] | Ki (Aurora-1 (Aurora B)) [nM] | IC50 (Colo205 cells; COLO 205, Colo205 cells, 96 hours, read-out: Colo205 inh 3H-Thy incorporation after 96 hours IC50) [µM] | Ki (Aurora-2 (Aurora A)) [nM] | IC50 (Colo205 cells; [3]) [µM] | Ki [1] [nM] | IC50 (Colo205 cells; [4]) [µM] | IC50 (Arg (Abl-2)) [nM] | IC50 (FGFR1) [nM] |
| --- | --- | --- | --- | --- | --- | --- | --- | --- | --- |
| CCC(=O)Nc1ccc(Sc2nc(Nc3cc(C)n[nH]3)cc(N3CC(O)(CC)C3)n2)cc1 [Compound I-4] | 1.7 | 15 | 0.092 | – | – | – | – | – | – |
| CCC(=O)Nc1ccc(Sc2nc(Nc3cc(C)n[nH]3)cc(N3CC(O)(CC(C)(C)C)C3)n2)cc1 [Compound I-1] | – | 7 | – | 0.4 | 0.047 | – | – | – | – |
| CCC(=O)Nc1ccc(Sc2nc(Nc3cc(C)[nH]n3)cc(N3CC(F)(C4CC4)C3)n2)cc1 [Compound I-16] | 1 | 24 | – | – | – | 170 | 0.051 | – | – |
| Cc1cc(Nc2cc(N3CC(F)(C4CC4)C3)nc(Sc3ccc(NC(=O)C4(C(F)(F)F)CC4)cc3)n2)[nH]n1 [Compound I-15] | 0.4 | 9.6 | – | – | – | 57 | 0.026 | – | – |
| Cc1cc(Nc2cc(N3CC(F)(C4CC4)C3)nc(Sc3ccc(NC(=O)CCC(F)(F)F)cc3)n2)[nH]n1 [Compound I-17] | 0.62 | 12 | – | – | 0.019 | 22 | 0.026 | 210 | 88 |
